Measured values as given in ChEMBL document CHEMBL1201862, “PubChem BioAssay data set” (2004).
The source made the active and inactive calls.

What was measured:
[1] = target: Cytochrome P450 2C19 (Homo sapiens, UniProt P33261); test: Cytochrome panel assay with activity outcomes. Panel member name: p450-cyp2c19 Compounds with AC50 equal or less than 10 uM are considered active; type: functional; settings: read-out: AC50
[2] = target: Cytochrome P450 2D6 (Homo sapiens, UniProt P10635);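 also: CYP2D6 member of a cytochrome P450 panel assay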
Chain of Cytochrome P450 2D6 (P10635 whole entry): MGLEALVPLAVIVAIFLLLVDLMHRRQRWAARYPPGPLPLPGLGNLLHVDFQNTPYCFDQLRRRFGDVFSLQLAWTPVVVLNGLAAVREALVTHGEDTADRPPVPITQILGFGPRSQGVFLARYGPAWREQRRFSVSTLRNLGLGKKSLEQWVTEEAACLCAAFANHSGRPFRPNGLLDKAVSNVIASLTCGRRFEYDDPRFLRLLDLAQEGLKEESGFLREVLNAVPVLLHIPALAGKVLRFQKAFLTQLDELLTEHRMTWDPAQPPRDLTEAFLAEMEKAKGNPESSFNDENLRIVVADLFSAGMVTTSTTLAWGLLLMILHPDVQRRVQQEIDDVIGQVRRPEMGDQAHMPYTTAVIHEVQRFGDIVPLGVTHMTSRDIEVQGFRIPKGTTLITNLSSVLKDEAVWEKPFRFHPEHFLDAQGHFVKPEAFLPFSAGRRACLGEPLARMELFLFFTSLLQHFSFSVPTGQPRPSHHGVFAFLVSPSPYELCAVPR

[3] = target: T1, Replicative DNA helicase DnaB (Mycobacterium tuberculosis, UniProt P9WMR3); test: DnaB intein splicing inhibitors, dose response, biochemical, cell-free fluorescence (AID 449749); type: functional
T1 sequence (P9WMR3 whole entry): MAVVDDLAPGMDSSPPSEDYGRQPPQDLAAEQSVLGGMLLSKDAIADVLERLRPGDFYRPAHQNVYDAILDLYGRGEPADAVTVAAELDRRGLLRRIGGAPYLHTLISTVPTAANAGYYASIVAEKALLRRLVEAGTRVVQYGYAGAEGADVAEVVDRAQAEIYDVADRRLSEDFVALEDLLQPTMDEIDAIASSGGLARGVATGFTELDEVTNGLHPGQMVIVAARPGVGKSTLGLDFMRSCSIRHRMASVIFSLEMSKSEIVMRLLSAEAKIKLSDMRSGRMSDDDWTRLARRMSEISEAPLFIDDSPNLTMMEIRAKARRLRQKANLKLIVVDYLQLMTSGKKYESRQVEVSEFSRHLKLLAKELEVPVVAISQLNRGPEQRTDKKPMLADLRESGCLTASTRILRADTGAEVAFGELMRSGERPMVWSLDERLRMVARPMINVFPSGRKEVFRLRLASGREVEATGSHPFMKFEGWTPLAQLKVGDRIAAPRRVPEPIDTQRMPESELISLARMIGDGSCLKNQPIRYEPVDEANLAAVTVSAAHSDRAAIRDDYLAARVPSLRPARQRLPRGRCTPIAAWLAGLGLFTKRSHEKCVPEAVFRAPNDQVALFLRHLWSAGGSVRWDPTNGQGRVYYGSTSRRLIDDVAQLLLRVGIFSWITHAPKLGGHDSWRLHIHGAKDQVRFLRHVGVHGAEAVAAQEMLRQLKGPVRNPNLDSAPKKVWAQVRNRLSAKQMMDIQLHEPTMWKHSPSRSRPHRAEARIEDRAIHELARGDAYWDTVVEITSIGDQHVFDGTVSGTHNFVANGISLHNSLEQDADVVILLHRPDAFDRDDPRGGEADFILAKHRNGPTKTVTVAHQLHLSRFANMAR

[4] = target: T2, Protein RecA (Mycobacterium tuberculosis, UniProt P9WHJ3); test: Fluorescence Cell-Free Homogeneous Dose Retest to Identify Inhibitors of RecA-Intein Splicing Activity. [Related pubchem assays (depositor defined):AID2097, AID2223, AID489010, AID492950]; type: functional
T2 sequence (P9WHJ3 whole entry): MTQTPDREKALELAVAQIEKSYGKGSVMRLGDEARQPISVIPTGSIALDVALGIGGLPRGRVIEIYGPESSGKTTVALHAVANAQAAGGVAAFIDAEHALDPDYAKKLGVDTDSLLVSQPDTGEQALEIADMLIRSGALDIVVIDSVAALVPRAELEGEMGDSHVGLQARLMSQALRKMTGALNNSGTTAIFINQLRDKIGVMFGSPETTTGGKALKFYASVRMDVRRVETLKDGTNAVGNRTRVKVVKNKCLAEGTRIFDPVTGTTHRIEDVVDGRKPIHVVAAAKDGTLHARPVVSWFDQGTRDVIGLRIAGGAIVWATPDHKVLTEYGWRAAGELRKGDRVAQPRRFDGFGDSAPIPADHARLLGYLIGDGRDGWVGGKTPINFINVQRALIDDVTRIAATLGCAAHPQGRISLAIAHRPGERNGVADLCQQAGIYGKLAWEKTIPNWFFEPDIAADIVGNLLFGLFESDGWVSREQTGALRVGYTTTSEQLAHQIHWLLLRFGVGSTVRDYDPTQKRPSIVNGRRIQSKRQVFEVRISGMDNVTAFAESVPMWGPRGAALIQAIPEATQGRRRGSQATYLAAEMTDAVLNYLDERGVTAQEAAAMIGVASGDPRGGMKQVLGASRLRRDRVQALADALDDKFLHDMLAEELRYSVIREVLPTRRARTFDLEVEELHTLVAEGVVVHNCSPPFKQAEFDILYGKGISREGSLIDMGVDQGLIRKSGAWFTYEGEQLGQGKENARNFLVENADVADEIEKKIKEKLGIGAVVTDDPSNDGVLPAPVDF

[5] = target: FAD-linked sulfhydryl oxidase ALR (Homo sapiens, UniProt P55789); test: ALR-catalysed DTT oxidation blockers – biochemical, H2O2 detection, luminescence, cherry-pick, dose response (AID 493248)
Chain of FAD-linked sulfhydryl oxidase ALR (P55789 whole entry): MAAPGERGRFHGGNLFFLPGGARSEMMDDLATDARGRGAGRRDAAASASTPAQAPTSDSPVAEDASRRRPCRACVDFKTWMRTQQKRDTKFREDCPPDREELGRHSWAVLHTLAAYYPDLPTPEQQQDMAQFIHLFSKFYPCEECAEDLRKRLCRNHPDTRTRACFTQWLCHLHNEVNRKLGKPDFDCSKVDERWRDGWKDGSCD

[6] = target: Cytochrome P450 3A4 (Homo sapiens, UniProt P08684);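 also: CYP3A4 tested as one member of a cytochrome P450 panel screen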
Chain of Cytochrome P450 3A4 (P08684 whole entry): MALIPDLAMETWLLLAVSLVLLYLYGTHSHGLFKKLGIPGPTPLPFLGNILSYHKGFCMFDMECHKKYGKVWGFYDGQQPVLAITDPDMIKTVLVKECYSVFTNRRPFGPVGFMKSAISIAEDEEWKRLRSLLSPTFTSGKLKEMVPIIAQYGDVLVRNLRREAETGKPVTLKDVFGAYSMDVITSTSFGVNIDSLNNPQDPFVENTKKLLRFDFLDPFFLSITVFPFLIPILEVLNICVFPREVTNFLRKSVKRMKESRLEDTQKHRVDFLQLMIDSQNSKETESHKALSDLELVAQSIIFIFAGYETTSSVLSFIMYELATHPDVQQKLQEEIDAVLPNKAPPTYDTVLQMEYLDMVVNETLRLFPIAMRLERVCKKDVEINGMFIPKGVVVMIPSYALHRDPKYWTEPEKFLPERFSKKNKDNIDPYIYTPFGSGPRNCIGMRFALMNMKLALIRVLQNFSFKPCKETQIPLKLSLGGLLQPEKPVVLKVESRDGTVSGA

[7] = Luminescence Cell-Based Dose Response HTS to Identify Activators of Luciferase Translation or Activity in H4 […] Cells. [Related pubchem assays: 1829 (Project Summary), 1814 (Primary HTS)]; type: functional
[8] = system: H4; test: Luminescence Cell-Based Dose Response HTS to Identify Activators of 5'UTR Stem-Loop Driven Prion Protein mRNA Translation in H4 Neuroglioblastoma Cells. [Related pubchem assays: 1829 (Project Summary), 1814 (Primary HTS)]; type: functional; settings: Homo sapiens
[9] = target: Cytochrome P450 2C9 (Homo sapiens, UniProt P11712)
Chain of Cytochrome P450 2C9 (P11712 whole entry): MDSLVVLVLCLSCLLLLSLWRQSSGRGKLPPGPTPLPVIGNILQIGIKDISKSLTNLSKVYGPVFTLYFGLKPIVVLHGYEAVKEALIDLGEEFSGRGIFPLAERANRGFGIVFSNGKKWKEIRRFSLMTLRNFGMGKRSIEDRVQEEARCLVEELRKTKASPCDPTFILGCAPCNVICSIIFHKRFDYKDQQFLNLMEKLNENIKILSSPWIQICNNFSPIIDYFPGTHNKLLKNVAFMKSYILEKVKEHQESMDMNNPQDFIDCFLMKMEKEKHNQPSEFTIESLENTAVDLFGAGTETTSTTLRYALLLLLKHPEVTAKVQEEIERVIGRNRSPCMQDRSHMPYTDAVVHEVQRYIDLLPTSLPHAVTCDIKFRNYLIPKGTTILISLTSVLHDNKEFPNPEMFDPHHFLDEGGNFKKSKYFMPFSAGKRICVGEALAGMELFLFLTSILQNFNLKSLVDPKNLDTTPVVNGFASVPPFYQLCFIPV

[10] = target: T3, Streptokinase A (Streptococcus pyogenes serotype M1, UniProt P10520); test: viability-normalized secreted streptokinase activity reduction – plasminogen activation absorbance, OD405, dose response (AID 1914); type: functional, Streptococcus pyogenes M1 GAS;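 also: secreted streptokinase activity via plasminogen activation per viability signal from cell pellet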
T3 sequence (P10520 whole entry): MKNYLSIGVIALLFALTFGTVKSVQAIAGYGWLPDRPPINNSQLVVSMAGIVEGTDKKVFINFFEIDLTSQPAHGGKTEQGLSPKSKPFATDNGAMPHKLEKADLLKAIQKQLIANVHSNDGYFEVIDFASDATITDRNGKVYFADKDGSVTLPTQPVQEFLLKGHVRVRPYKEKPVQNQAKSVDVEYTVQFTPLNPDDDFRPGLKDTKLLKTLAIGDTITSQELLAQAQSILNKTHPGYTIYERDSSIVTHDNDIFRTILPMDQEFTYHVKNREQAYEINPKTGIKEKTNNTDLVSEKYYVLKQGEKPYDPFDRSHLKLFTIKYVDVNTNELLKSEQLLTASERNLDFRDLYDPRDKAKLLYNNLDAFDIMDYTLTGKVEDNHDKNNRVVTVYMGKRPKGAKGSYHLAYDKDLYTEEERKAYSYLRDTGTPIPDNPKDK

[11] = system: Streptococcus sp. 'group A'; test: Streptococcus pyogenes SK(-)GAS viability under kanamycin – luminescence, BacTiterGlo, confirmation, counter-screen for streptokinase expression inhibitor project, dose response (AID 1900); type: functional, organism-based
[12] = system: Streptococcus; test: GAS UMAA2166 growth inhibition – luminescence, BacTiterGlo, counter-screen for streptokinase expression inhibitor project, dose response (AID 1915); type: functional, organism-based;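 also: potency for reduction of bacterial viability or growth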
[13] = Trypanosoma cruzi growth suppression in host cells – NIH3T3 host cells, beta-gal luminescence, confirmation (AID 2044); type: functional, cell-based;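 also: intracellular parasites grown in NIH/3T3 mouse fibroblasts as host cells; luminescent beta-galactosidase reporter signal from transgenic T. cruzi replicating inside host cells; inhibitors lower the luminescence signal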
[14] = NIH3T3 cell viability loss – ATP luminescence, mouse fibroblasts, counter-screen, dose response (AID 2010); type: functional, cell-based;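 also: cells exposed to compound for about 90 hours before reading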
[15] = reduction of Shn3 3'UTR-driven luciferase in osteoblasts – cell-based, Clone20 osteoblasts, firefly luciferase, cherry-picked, dose response (AID 624132); type: functional;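 also: firefly luciferase luminescence from reporter carrying the Shn3 3'UTR in osteoblasts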
[16] = non-specific 3'UTR reporter inhibition in Clone20-Shn3RL – cell-based, Renilla luciferase, cherry-picked, counter-screen for Shn3 inhibitor project, dose response (AID 624133); type: functional
[17] = target: T4, Heat shock factor protein 1 (Mus musculus, UniProt P38532); test: decrease of HSF1-responsive luciferase luminescence – cell-based, NIH3T3, dose retest, confirmation (AID 2382); type: functional;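 also: NIH3T3 fibroblasts with HSF1-driven luciferase reporter stressed by proteasome inhibitor MG132; luminescence from HSF1-driven luciferase expression after 8 hours of MG132 stress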
T4 sequence (P38532 whole entry): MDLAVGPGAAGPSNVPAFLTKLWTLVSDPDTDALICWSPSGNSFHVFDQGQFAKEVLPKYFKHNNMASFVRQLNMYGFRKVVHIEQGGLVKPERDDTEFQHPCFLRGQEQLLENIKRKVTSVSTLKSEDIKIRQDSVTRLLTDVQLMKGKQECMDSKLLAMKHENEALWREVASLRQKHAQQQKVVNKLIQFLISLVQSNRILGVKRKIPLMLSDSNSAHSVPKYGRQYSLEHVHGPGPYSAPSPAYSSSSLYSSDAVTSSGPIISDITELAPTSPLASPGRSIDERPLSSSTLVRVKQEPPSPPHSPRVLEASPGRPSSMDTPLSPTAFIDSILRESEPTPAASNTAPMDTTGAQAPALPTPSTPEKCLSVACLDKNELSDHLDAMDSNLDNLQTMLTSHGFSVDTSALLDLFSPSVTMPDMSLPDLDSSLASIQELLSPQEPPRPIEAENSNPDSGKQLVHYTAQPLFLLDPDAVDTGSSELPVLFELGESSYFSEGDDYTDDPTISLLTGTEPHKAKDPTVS

Chain of Cytochrome P450 2C19 (P33261 whole entry): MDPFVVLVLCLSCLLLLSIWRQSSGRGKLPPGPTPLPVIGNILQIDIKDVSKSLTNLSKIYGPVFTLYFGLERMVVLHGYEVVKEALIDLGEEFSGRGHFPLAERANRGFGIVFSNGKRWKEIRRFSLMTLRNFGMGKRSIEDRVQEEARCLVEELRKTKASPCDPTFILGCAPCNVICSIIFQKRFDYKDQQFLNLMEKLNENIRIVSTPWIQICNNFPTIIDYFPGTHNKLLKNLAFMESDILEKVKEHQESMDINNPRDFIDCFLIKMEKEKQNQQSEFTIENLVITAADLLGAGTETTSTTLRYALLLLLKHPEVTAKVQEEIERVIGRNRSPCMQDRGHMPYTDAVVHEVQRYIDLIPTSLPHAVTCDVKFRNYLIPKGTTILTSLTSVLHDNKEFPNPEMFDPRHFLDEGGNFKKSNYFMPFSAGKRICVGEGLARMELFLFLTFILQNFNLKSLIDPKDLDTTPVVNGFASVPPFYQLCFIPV

## Cc1nc2nc(C)c(CCC(=O)NCCCN3CCN(c4cccc(Cl)c4)CC3)c(C)n2n1
[1]
  AC50: 25.1 µM (inconclusive)
[2]
  AC50: 12.6 µM (inconclusive)

## CC(C)(C)c1[nH]nc2c1C(Cc1ccccc1)C(C#N)=C(N)O2 (configuration not stated)
[3]
  AC50: 13.8 µM (active)
[4]
  EC50: 2.31 µM (active)

## Nc1n[nH]c(SCC(=O)Nc2ccccc2Sc2ccc(Cl)cc2)n1
[2]
  AC50: 12.6 µM (inconclusive)

## Nn1c(S)nnc1Cc1ccccc1
[5]
  AC50: 134 nM (active)

## COc1ccc(OC)c2nc(O)c(CCNS(=O)(=O)c3ccc(Cl)cc3)cc12
[1]
  AC50: 8.91 µM (inconclusive)
[6]
  AC50: 5.62 µM (inconclusive)
[2]
  AC50: 31.6 µM (inconclusive)

## N=C(N)SCc1nc(-c2ccc(Cl)cc2)no1
[6]
  AC50: 5.01 µM (inconclusive)
[2]
  AC50: 3.16 µM (inconclusive)

## O=C(C1CC1)N1CCN=C1SCc1ccccc1Cl
[5]
  AC50: 2290 nM (active)

## COc1ccc(C2C(C#N)=C(N)Oc3[nH]nc(C)c32)cc1Cn1cc([N+](=O)[O-])cn1 (configuration not stated)
[3]
  AC50: 5.32 µM (active)
[4]
  EC50: 3.11 µM (active)

## N#CCC(=O)Nc1ccc(C(=O)NCc2cccc(Cl)c2)cc1
[5]
  AC50: 9800 nM (active)

## COc1cccc(CC(C(=O)Nc2cc(C)ccc2C)c2nn[nH]n2)c1OC (configuration not stated)
[6]
  AC50: 25.1 µM (inconclusive)
[2]
  AC50: 15.8 µM (inconclusive)

## CCN(CC)CCc1nc(-c2ccccc2)no1
[2]
  AC50: 6.31 µM (inconclusive)

## Cc1ccc(C(=O)NNc2ncnc3ccccc23)cc1
[7]
  EC50: 6.62 µM (active)
[8]
  EC50: > 120 µM (not active)

## COc1cccc(-c2[nH]nc3c2C(c2ccc(C)o2)C(C#N)=C(N)O3)c1 (configuration not stated)
[3]
  AC50: 8.74 µM (active)
[9]
  AC50: 15.8 µM (inconclusive)
[4]
  EC50: 1.53 µM (active)

## Nc1cccc(/C=C/c2ccncc2)c1
[5]
  AC50: 590 nM (active)

## FC(F)(F)c1cccc(NC(S)=Nc2ccc(Cl)cc2Cl)c1
[9]
  AC50: 31.6 µM (inconclusive)
[6]
  AC50: 28.2 µM (inconclusive)
[2]
  AC50: 7.94 µM (inconclusive)
[10]
  EC50: > 150 µM (not active)
[11]
  EC50: 4.48 µM (active)
[12]
  EC50: 46.8 µM (active)

## CCOc1cc(C(c2c(C)n[nH]c2O)c2c(C)n[nH]c2O)cc(Cl)c1O
[3]
  AC50: > 380 µM (inactive)
[4]
  EC50: 4.74 µM (active)

## Cc1cc(NC(=O)c2ccc(S(=O)(=O)Nc3ccccc3)cc2)no1
[2]
  AC50: 25.1 µM (inconclusive)

## COc1ccc(-n2c(=O)c(C)nc3cnc(Nc4cccc(OC)c4)nc32)cc1
[9]
  AC50: 39.8 µM (inconclusive)
[1]
  AC50: 39.8 µM (inconclusive)
[6]
  AC50: 10 µM (inconclusive)

## Cc1cc(NC(=O)Nc2ccc(N(C)C)cc2)c2cc(F)cc(F)c2n1
[2]
  AC50: 31.6 µM (inconclusive)

## O=[N+]([O-])c1ccc(Sc2nc(O)c3ccccc3n2)c([N+](=O)[O-])c1
[13]
  EC50: 1.48 µM (active)
[3]
  AC50: 16.9 µM (active)
[14]
  EC50: > 60 µM (not active)
[4]
  EC50: 6.05 µM (active)

## O=[N+]([O-])c1cc(-c2ccc(C(=S)N3CCOCC3)o2)ccc1Cl
[3]
  AC50: 39.9 µM (active)
[4]
  EC50: 10.2 µM (active)

## CCC(=O)c1cn(CC(=O)Nc2cccc(C)c2C)c2ccccc12
[15]
  AC50: 1.52 µM (active)
[16]
  AC50: 3.44 µM (active)

## COc1cc(/C=C2/C(=O)NN(c3ccccc3)C2=O)cc(Br)c1O
[5]
  AC50: 484 nM (active)

## CCCCOc1cc(C(=O)NCCN(CC)CC)c2ccccc2n1 [DIBUCAINE]
[2]
  AC50: 7.94 µM (inconclusive)

## Cc1ccc(SCc2cc(=O)n(C)[nH]2)cc1
[3]
  AC50: 13.3 µM (active)
[4]
  EC50: 5.29 µM (active)

## N#CC(C#N)=NNc1ccc(S(=O)(=O)N2CCCCC2)cc1
[3]
  AC50: 4.03 µM (active)
[4]
  EC50: 9.78 µM (active)

## O=C(CSc1nnc(-c2ccc(Cl)cc2)o1)N1CCOCC1
[7]
  EC50: 46.3 µM (active)
[8]
  EC50: 11.8 µM (active)

## O=C(Oc1ccc(C(=S)N2CCOCC2)cc1)c1ccc([N+](=O)[O-])cc1[N+](=O)[O-]
[3]
  AC50: 18.6 µM (active)
[4]
  EC50: 10.6 µM (active)

## COc1ccc(S(=O)(=O)N2CCN(CC(=O)Nc3cc(OC)cc(OC)c3)CC2)cc1
[2]
  AC50: 20 µM (inconclusive)

## CCc1cc2c(nc1CC)CCN(CC/C(C)=N/O[C@@H](C)c1cn([C@@H]3COC[C@@H]3O)nn1)C2
[2]
  AC50: 2.51 µM (inconclusive)

## CCCC1C(C#N)=C(N)Oc2[nH]nc(C(C)(C)C)c21 (configuration not stated)
[3]
  AC50: 2.36 µM (active)
[4]
  EC50: 0.504 µM (active)

## CC(=O)Oc1ccc(OC(C)=O)c(SCCCCCCl)c1
[15]
  AC50: 2.58 µM (active)
[16]
  AC50: 7.84 µM (active)
[17]
  EC50: 7.65 µM (active)
